# From patent US9107954B2, “Bivalent ligands for the treatment of neurological disorders” (Virginia Commonwealth University, priority 2012, dated 2015)
# Assays:
# MOR = MOR (Homo sapiens (Human), UniProt P35372); experiment: Calcium mobilization assay, CCR5-MOR CHO co-expressed cell line (Gqi5), DAMGO-stimulated; assay type: cell-based
# Protocol: Having a cell line that consistently expresses both CCR5 and MOR was essential for studying how the two receptors interact with each other using calcium mobilization assays and cell fusion assays. A previously established MOR Chinese hamster ovarian (CHO) cell line was transfected with a plasmid containing CCR5 tagged with a yellow fluorescent protein on its N-terminus (CCR5-YFP). ^1 After 48 hours cells were sorted based upon the presence of the yellow fluorescent protein tag using a flow cytometer. Cells containing the tagged receptors were then cultured and used in the subsequent assays.
# Calcium mobilization is directly related to G protein-coupled receptor (GPCR) activation and therefore is a useful technique to study the functional activity of new ligands.
# [1] = tested on: R5-tropic HIV-1SF162 in primary human astrocytes; experiment: HIV-1SF162 infectivity, Tat luciferase reporter assay in primary human astrocytes; assay type: cell-based
# Protocol: Primary human astrocytes (ScienCell catalog #1901) were cultured in 24-well plates and transfected with the plasmid pBlue3′LTR-luc (NIH AIDS Research and Reference Reagent Program) using Lipofectamine 2000 (Invitrogen) followed by infection with HIV-1. After 18-20 h cells were rinsed twice in 1×PBS then lysed in Cell Culture Lysis Reagent (Promega) and relative Tat protein expression was determined by measuring luciferase activity using the Luciferase Assay System (Promega; catalog # E1500). Light units were measured using a PHERAstar FS plate reader (BMG Labtech).
# Primary human astroglial cells were infected by incubation with the neurotropic HIV-1 strain SF162. A concentration of HIV-1 p24 50 pg/10^6 cells was used, and a no virus condition served as a negative control. Viral stocks were quantified by assaying for HIV-1 p24 (Alliance p24 Antigen ELISA Kit; Advanced Bioscience, Kensington, Md.).
# HIV-1SF162 infectivity of human astroglia was determined based on the relative amount of Tat protein expressed by the virus using a luciferase-based reporter assay. Reporters under the control of the long terminal repeat (LTR) viral promoter are a robust means of measuring HIV-1 infection, since the LTR is activated by HIV-1 Tat, which is only expressed by infected cells.
# As the bivalent ligand 1 has been designed as a molecular probe to study the underlying mechanisms of opioid-enhanced NeuroAIDS by targeting the MOR-CCR5 heterodimerization, a luciferase-based HIV-1SF162) infection assay measuring the relative transactivator of transcription (Tat) protein expression in human astrocytes was performed (FIG. 15). Tat is encoded by HIV-1 and is the first protein to be produced after HIV-1 infection. Thus, Tat expression level is directly proportioned to the extent of HIV-1 invasion. Astrocytes were chosen based on the following facts: first, astrocytes express both the MOR and the CCR5. Second, the human blood-brain barrier (BBB) is composed of interacting adjacent cerebral endothelial cells (CECs) and astrocytes, which makes astrocytes a readily accessible target during the course of HIV infection. Thirdly, during NeuroAIDS development astroglia are important cellular sites within the CNS where opioids synergistically potentiate the pathophysiological effects of HIV-1 infection.
# CCR5 [2] = experiment: Flow cytometry of CCR5 immunofluorescence in HIV-1 infected primary human astrocytes; assay type: cell-based; settings: maraviroc co-exposure; bivalent ligand ± morphine
# Protocol: MOR and CCR5 immunoreactivity were detected by direct immunofluorescence in astroglial cells by flow cytometric analysis. Cells were washed in phosphate-buffered saline (PBS)-0.1% bovine serum albumin (BSA) buffer and incubated with primary MOR antibody followed by a secondary antibody conjugated to allophycocyanin (APC) (Biolegend, Inc; catalog #408001) and Alexa Fluor® 488 conjugated anti-mouse CD195 (CCR5) antibody (Biolegend, Inc; catalog #107008) in permeabilization buffer (PBS-0.1% BSA-0.1% Triton X-100) at a 1:500 dilution. Fluorescence was measured from 10,000 gated cells per treatment in each experiment using a FACSCanto II flow cytometer (BD Biosciences, San Jose, Calif.). Auto-fluorescence was compensated by setting the detector voltage to the minimum level that discriminates between auto-fluorescence and specific immunofluorescence in both negative and positive controls. Isotype control antibodies were used to define settings in histogram plot analyses.
# We quantitatively analyzed the effect of MVC and the bivalent compound on CCR5 and MOR expression levels in virally infected astrocytes by flow cytometry. […] Approximately 20,000 events were analyzed per treatment condition in each experiment and size discrimination was used as a crude method for viability determination.
# [3] = tested on: fusion of CCR5-MOR CHO target cells (CD4) with HEK effector cells (HIV-1 gp140); assay type: cell-based
# TNF-α = experiment: Cytokine release ELISA, HIV-1 infected astroglia supernatant: TNF-α; assay type: cell-based, human; settings: 18-20 h; bivalent ligand ± morphine
# Protocol: The protein levels of the cytokines TNF-α, IL-6, IL-1β and the chemokine RANTES were measured by ELISA (Quantikine kits; R&D Systems Minneapolis, Minn.).
# After 18-20 h exposure, supernatant was removed and analyzed by ELISA to quantitatively analyze the release of the cytokines TNF-α, IL-1β and IL-6 and the chemokine RANTES.
# human astrocytes = experiment: Cytotoxicity assay, AOPI live/dead labeling of human astrocytes; assay type: cell-based
# Protocol: Cell viability was assessed by measurement of both live and dead cells using dual (green/red) fluorescence labeling with AOPI analyzed with Cellometer Vision CBA (Nexcelom Bioscience LLC).
# To determine whether HIV-1±morphine exposure affected astrocyte viability in the presence or absence of MVC or the bivalent compound, a cell death assay was performed at 24 h after treatment.
# CCR5 [4] = biological target: CCR5 (Homo sapiens (Human), UniProt P51681); experiment: RANTES-stimulated Ca2+ flux assay in Gqi5 transfected CCR5-MOLT-4 cells (Example 4); assay type: cell-based
# Sequence of CCR5 (Homo sapiens (Human), UniProt P51681) (P51681 whole entry): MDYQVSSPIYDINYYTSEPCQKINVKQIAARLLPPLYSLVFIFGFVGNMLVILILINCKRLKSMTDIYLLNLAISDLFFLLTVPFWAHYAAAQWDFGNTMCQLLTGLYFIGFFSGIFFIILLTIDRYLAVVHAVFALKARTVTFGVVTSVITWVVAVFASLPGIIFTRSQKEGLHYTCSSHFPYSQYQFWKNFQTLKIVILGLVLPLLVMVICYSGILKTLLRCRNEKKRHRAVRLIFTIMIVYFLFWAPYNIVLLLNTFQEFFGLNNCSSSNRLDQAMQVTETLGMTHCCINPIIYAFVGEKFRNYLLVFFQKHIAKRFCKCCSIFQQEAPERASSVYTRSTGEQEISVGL
structure (smiles),measurement,setting,value
Cc1nnc(C(C)C)n1C1CC2CCC(C1)N2CC[C@H](NC(=O)C1CCC(F)(F)CC1)c1ccc(NC(=O)COCC(=O)NCCCCCCCNC(=O)COCC(=O)N[C@@H]2CC[C@@]3(O)[C@H]4Cc5ccc(O)c6c5[C@@]3(CCN4CC3CC3)[C@H]2O6)cc1 (stereo partly shown) [bivalent ligand 1],IC50,MOR,30 ± 2.44 nM
same,potency in HIV-1 entry inhibition relative to the mixture of maraviroc and naltrexone,[1],two times
same,decrease in Tat expression compared to maraviroc alone or the combination of maraviroc and naltrexone,[1]; 100 nM,two-fold
same,"fold decrease in Tat expression compared to MVC with NTX plus morphine, bivalent compound plus morphine",[1]; 100 nM + morphine 500 nM,4.4 fold
same,"fold decrease in Tat expression compared to R5 plus MVC, bivalent compound plus morphine",[1]; 100 nM + morphine 500 nM,2.9 fold
same,fold decrease in Tat expression compared to R5 HIV-1 alone,"[1]; 100 nM, 18-20 h post-infection, no morphine",4.4 fold
same,fold decrease in virus entry compared to maraviroc with morphine,"[1]; 100 nM, morphine 500 nM, Example 3",7 fold
same,fold decrease in virus entry compared to maraviroc alone,"[1]; 100 nM, without morphine, Example 3",3.3 fold
same,fold decrease in Tat expression compared to R5 plus MVC,"[1]; bivalent ligand 100 nM, no morphine",2.0 fold
same,effect of morphine stimulation on potency,[1]; morphine 500 nM,no effect
same,fold decrease in CCR5 expression levels compared to R5 HIV-1,CCR5 [2],1.8 fold
same,effect on cell fusion,"[3]; 1 at 3000 nM, 2 at 10000 nM, maraviroc at 100 nM",significantly lowered cell fusion
same,amplification of cell fusion inhibition when morphine present,[3]; morphine 300 nM,2 fold
same,fold decrease in TNF-α release compared to R5 HIV-1 alone,TNF-α,2.0 fold
same,astrocyte viability,"human astrocytes; 100 nM, HIV-1 ± morphine, 24 h",did not significantly affect the survival
same,"toxicity in the astrocytes, cytotoxicity assays (not shown)",human astrocytes; Example 3,neither maraviroc nor 1 had any toxicity
same,fold less potent than maraviroc in RANTES induced Ca2+ flux inhibition,CCR5 [4],approximately 60 fold
same,IC50,"CCR5 [4]; RANTES stimulated, read-out: Ca2+ inhibition IC50 ± SEM",126 ± 28 nM
same,CCR5 agonism,CCR5 [4]; data not shown,no CCR5 agonism
